Measurements: PMC5263201, “GABAA receptor occupancy by subtype selective GABAAα2,3 modulators: PET studies in humans” (Psychopharmacology, 2016)
Like-named read-outs stand apart in the source and are kept apart here.

Experiments:
Melatonin MT1 = Melatonin MT1 (Homo sapiens, UniProt P48039); experiment: Secondary receptor binding profile
GABAA α1β2γ2 = target: GABAA α1β2γ2; set-up: method as in Christian et al 2015; conditions: recombinant Sf9 membranes α1β2γ2; [3H]flunitrazepam; mean (SD); ref Christian et al 2015; read-out: Affinity in vitro at BZ binding site (Ki) α1; cited from earlier work
[1] = set-up: method as in AstraZeneca Single Ascending Dose studies; conditions: ref AstraZeneca Single Ascending Dose studies, cited from earlier work
GABAA α2β3γ2 [2] = system: GABAA α2β3γ2; set-up: method as in Christian et al 2015; conditions: 1µM test concentration, GABA EC10, % of 1 µM diazepam, mean ±SE, ref Christian et al 2015; cited from earlier work
GABAA α5β3γ2 = system: GABAA α5β3γ2; set-up: method as in Christian et al 2015; conditions: 1µM test concentration, GABA EC10, % of 1 µM diazepam, mean ±SE, ref Christian et al 2015; cited from earlier work
Melatonin MT2 = Melatonin MT2 (Homo sapiens, UniProt P49286); experiment: Secondary receptor binding profile
GABAA α2β3γ2 [3] = target: GABAA α2β3γ2; set-up: method as in Christian et al 2015; conditions: recombinant Sf9 membranes α2β3γ2; [3H]flunitrazepam; mean (SD); ref Christian et al 2015; read-out: Affinity in vitro at BZ binding site (Ki) α2; cited from earlier work
[4] = AZD6280; ref parallel multiple ascending dose study; cited from earlier work
GABAA α3β3γ2 = system: GABAA α3β3γ2; set-up: method as in Christian et al 2015; conditions: 1µM test concentration, GABA EC10, % of 1 µM diazepam, mean ±SE, ref Christian et al 2015; cited from earlier work
[5] = Binding to human plasma proteins; assay type: in vitro ADME; conditions: read-out: unbound fraction of the total plasma drug
P-gp = P-gp (Homo sapiens, UniProt P08183); experiment: P-gp substrate assessment; assay type: in vitro ADME
[6] = AZD6280 1mg, Part A, 8 subjects
[7] = AZD6280 5mg, Part B, 8 subjects
[8] = AZD6280 20mg, Part A, 8 subjects
[9] = AZD6280 30mg, Part B, 7 subjects
[10] = AZD6280 40mg, Part A, 8 subjects
[11] = AZD6280 60mg, Part B, 8 subjects

P-gp, sequence (P08183 whole entry): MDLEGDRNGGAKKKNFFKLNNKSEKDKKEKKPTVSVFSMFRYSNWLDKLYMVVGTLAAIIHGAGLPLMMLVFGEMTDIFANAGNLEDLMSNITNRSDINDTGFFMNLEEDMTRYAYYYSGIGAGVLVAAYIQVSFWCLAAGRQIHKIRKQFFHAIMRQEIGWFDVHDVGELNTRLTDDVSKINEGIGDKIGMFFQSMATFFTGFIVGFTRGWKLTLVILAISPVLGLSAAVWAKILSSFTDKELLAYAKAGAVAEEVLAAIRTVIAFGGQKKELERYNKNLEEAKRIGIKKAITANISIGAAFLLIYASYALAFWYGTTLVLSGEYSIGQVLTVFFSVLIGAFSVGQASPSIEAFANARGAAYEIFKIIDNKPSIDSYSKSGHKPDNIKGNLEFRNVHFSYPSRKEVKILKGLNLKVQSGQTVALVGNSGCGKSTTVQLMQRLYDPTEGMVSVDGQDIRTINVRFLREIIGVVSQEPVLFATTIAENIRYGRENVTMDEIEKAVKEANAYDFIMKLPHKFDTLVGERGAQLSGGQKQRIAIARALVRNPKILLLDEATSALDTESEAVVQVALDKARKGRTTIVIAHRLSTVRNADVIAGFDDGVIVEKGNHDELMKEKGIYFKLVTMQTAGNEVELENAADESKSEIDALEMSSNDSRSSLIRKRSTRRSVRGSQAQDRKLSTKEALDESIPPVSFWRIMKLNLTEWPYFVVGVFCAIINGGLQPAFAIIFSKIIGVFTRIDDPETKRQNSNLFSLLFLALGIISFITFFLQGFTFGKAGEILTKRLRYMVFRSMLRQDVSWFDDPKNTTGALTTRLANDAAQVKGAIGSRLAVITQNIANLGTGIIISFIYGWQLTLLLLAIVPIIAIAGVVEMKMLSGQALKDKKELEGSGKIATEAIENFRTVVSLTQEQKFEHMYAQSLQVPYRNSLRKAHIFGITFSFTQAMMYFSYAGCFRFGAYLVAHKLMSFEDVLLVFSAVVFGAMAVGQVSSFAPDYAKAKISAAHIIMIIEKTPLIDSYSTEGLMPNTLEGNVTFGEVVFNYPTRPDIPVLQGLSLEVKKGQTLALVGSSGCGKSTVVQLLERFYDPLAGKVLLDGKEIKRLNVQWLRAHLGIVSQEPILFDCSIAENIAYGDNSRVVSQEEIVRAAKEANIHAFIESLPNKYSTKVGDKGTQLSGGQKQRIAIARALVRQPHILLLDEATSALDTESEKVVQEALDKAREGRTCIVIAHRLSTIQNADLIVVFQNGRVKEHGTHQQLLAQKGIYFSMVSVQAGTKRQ
Melatonin MT1, sequence (P48039 whole entry): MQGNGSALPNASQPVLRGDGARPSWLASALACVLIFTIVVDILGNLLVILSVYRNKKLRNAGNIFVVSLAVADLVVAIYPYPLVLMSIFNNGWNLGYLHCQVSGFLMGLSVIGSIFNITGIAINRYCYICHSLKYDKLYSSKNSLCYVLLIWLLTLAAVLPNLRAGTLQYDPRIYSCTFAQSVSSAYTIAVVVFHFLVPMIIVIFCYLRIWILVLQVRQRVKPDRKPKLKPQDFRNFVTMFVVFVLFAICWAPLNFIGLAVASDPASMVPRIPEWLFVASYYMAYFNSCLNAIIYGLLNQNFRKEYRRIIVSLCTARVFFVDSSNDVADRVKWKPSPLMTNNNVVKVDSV
Melatonin MT2, sequence (P49286 whole entry): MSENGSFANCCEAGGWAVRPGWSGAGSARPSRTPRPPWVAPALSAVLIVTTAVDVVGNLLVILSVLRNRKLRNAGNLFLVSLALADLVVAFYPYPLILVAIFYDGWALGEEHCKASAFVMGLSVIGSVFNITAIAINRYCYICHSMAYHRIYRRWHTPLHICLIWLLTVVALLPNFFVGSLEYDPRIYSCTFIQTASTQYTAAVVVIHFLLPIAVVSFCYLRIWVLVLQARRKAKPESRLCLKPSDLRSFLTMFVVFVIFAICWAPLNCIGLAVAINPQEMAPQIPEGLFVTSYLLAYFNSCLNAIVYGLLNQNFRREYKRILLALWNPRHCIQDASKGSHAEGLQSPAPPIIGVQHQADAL

CCCNC(=O)c1nnc2c(-c3cc(OC)ccc3OC)cccc2c1N [AZD6280]
IC50 (Melatonin MT1): 0.116 µM
Ki (GABAA α1β2γ2): 0.0005 ± 0.0002 µM
Number of subjects with at least one adverse event [1, 6]: 2 (25) Number (%) of patients
abnormal coordination [1, 6]: 0 Number (%) of patients
depersonalisation [1, 6]: 0 Number (%) of patients
dizziness [1, 6]: 0 Number (%) of patients
dreamy state [1, 6]: 0 Number (%) of patients
euphoric mood [1, 6]: 0 Number (%) of patients
headache [1, 6]: 1 (13) Number (%) of patients
nystagmus [1, 6]: 0 Number (%) of patients
somnolence [1, 6]: 0 Number (%) of patients
abnormal coordination [1, 7]: 0 Number (%) of patients
depersonalisation [1, 7]: 0 Number (%) of patients
dizziness [1, 7]: 2 (25) Number (%) of patients
dreamy state [1, 7]: 0 Number (%) of patients
euphoric mood [1, 7]: 0 Number (%) of patients
headache [1, 7]: 1 (13) Number (%) of patients
nystagmus [1, 7]: 0 Number (%) of patients
somnolence [1, 7]: 1 (13) Number (%) of patients
Number of subjects with at least one adverse event [1, 8]: 6 (75) Number (%) of patients
abnormal coordination [1, 8]: 0 Number (%) of patients
depersonalisation [1, 8]: 0 Number (%) of patients
dizziness [1, 8]: 0 Number (%) of patients
dreamy state [1, 8]: 0 Number (%) of patients
euphoric mood [1, 8]: 0 Number (%) of patients
headache [1, 8]: 2 (25) Number (%) of patients
nystagmus [1, 8]: 0 Number (%) of patients
somnolence [1, 8]: 1 (13) Number (%) of patients
Number of subjects with at least one adverse event [1, 9]: 2 (29) Number (%) of patients
abnormal coordination [1, 9]: 0 Number (%) of patients
depersonalisation [1, 9]: 0 Number (%) of patients
dizziness [1, 9]: 0 Number (%) of patients
dreamy state [1, 9]: 0 Number (%) of patients
euphoric mood [1, 9]: 1 (14) Number (%) of patients
headache [1, 9]: 0 Number (%) of patients
nystagmus [1, 9]: 0 Number (%) of patients
somnolence [1, 9]: 2 (29) Number (%) of patients
Number of subjects with at least one adverse event [1, 10]: 6 (75) Number (%) of patients
abnormal coordination [1, 10]: 0 Number (%) of patients
depersonalisation [1, 10]: 0 Number (%) of patients
dizziness [1, 10]: 0 Number (%) of patients
dreamy state [1, 10]: 0 Number (%) of patients
euphoric mood [1, 10]: 1 (13) Number (%) of patients
headache [1, 10]: 0 Number (%) of patients
nystagmus [1, 10]: 0 Number (%) of patients
somnolence [1, 10]: 3 (38) Number (%) of patients
Number of subjects with at least one adverse event [1, 11]: 7 (88) Number (%) of patients
abnormal coordination [1, 11]: 1 (13) Number (%) of patients
depersonalisation [1, 11]: 1 (13) Number (%) of patients
dizziness [1, 11]: 2 (25) Number (%) of patients
dreamy state [1, 11]: 1 (13) Number (%) of patients
euphoric mood [1, 11]: 0 Number (%) of patients
headache [1, 11]: 1 (13) Number (%) of patients
nystagmus [1, 11]: 1 (13) Number (%) of patients
somnolence [1, 11]: 3 (38) Number (%) of patients
Relative efficacy (%DZ) α2 (GABAA α2β3γ2 [2]): 36±4%
Relative efficacy (%DZ) α5 (GABAA α5β3γ2): 8±2%
IC50 (Melatonin MT2): 0.664 µM
Ki (GABAA α2β3γ2 [3]): 0.021 ± 0.005 µM
maximum tolerated dose (MTD) [4]: 40 mg
Relative efficacy (%DZ) α3 (GABAA α3β3γ2): 34±3%
fraction unbound [5]: ~0.1
P-gp substrate (P-gp): Neither compound is a P-gp substrate
